The target of data set [1] is T1, Histone acetyltransferase p300 (Homo sapiens, UniProt Q09472). As to the kind of experiment: Inhibition of p300 (unknown origin) using biotinylated histone H3 (1 to 21 residues) as substrate measured after 90 mins in presence of Acetyl CoA by AlphaLISA assay. (In general: Bead proximity is the source of the signal in Alpha formats.)
Data set [2] deals with T1, Histone acetyltransferase p300. Kind of data set: Inhibition of p300 in human U2932 cells assessed as reduction in H3K27 acetylation at 10 uM measured after 4 days in presence of EZH2 inhibitor EPZ6438 by Western blot analysis. In kind it is cell-based.
Data set [3] has as its system MCF7. Kind of data set: Antiproliferative activity against HER2-negative human MCF7 cells measured after 6 days of incubation by sulforhodamine B assay. The class given is functional, cell-based. Conditions: MCF7, 144 h. A general note: Sulforhodamine B stains cellular protein and so reports cell mass.
Data set [4] has as its system T47D. As to the kind of experiment: Antiproliferative activity against HER2-negative human T47D cells measured after 6 days of incubation by sulforhodamine B assay. The class given is functional, cell-based. The conditions noted are these: 144 h.
A short description of data set [5]: Solubility of compound in ethyl acetate. In kind it is physicochemical.
A short description of data set [6]: Solubility of compound in water. The class given is physicochemical. Conditions: buffer.
Data set [7] addresses Histone deacetylase 2 (Homo sapiens, UniProt Q92769). As to the kind of experiment: Inhibition of recombinant HDAC2 (unknown origin) measured after 30 mins by fluorescence assay.
In data set [8] the target is Histone deacetylase 3 (Homo sapiens, UniProt O15379). As to the kind of experiment: Inhibition of recombinant HDAC3 (unknown origin) measured after 30 mins by fluorescence assay.
Chain of Histone deacetylase 3 (O15379 whole entry): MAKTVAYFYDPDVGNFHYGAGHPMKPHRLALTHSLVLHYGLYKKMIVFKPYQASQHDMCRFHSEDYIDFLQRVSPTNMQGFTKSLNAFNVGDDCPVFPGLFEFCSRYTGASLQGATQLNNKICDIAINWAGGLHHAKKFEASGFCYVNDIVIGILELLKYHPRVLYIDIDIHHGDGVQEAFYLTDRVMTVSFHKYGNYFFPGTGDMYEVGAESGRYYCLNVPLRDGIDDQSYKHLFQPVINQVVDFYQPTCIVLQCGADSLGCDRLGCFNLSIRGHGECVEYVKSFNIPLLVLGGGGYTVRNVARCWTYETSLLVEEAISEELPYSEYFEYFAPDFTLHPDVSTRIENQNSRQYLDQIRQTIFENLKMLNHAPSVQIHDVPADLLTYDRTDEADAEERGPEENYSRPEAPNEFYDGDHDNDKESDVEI
Data set [9] has as its target T2, Protein deacetylase HDAC6 (Homo sapiens, UniProt Q9UBN7).
T2 sequence (Q9UBN7 whole entry): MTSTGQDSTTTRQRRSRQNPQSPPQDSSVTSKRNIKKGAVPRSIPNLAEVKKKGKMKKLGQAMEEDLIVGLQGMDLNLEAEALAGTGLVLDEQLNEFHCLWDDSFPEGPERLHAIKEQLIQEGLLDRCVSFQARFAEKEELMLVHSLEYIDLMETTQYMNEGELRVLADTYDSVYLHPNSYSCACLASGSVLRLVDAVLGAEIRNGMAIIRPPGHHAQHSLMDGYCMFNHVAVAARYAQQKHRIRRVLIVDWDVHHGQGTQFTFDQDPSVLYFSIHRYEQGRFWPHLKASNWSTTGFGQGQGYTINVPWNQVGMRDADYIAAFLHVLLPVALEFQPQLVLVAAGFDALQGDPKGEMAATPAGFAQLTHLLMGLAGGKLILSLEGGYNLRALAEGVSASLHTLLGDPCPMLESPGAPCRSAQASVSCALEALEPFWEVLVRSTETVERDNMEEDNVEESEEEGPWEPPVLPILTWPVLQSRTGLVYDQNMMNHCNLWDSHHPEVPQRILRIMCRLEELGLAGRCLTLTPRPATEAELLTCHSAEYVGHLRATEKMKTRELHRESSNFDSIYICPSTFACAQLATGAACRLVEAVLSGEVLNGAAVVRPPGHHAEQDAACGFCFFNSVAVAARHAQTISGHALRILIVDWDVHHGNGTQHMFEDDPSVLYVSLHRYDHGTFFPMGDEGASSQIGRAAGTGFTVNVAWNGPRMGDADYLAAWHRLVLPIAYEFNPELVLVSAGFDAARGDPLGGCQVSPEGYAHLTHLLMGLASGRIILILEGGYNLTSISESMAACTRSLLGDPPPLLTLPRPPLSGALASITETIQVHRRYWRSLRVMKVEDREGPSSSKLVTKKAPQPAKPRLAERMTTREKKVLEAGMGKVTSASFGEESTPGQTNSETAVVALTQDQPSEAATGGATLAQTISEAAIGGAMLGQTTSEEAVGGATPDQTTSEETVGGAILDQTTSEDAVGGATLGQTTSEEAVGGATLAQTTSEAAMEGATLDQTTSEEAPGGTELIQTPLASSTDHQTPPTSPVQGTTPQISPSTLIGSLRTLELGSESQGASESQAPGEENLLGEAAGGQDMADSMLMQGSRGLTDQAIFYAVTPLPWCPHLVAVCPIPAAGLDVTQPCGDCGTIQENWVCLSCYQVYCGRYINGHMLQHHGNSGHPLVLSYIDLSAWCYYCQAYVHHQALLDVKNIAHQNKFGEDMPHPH
As to the kind of experiment: Inhibition of recombinant HDAC6 (unknown origin) measured after 30 mins by fluorescence assay.

In data set [10] the target is T3, Histone deacetylase 8 (Homo sapiens, UniProt Q9BY41).
T3 sequence (Q9BY41 whole entry): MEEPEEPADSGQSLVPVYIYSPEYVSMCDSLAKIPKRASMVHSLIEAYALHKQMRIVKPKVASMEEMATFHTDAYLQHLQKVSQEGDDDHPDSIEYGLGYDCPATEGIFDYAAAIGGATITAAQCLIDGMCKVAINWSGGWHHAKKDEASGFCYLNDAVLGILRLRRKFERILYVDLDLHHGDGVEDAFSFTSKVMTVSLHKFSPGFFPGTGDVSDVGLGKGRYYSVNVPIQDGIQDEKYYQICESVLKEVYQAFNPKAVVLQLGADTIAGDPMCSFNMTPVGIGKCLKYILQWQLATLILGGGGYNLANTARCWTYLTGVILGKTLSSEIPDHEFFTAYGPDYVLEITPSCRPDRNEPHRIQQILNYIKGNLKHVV
Kind of data set: Inhibition of recombinant HDAC8 (unknown origin) measured after 30 mins by fluorescence assay.

The nature of data set [11]: Reactivity with glutathione assessed as addition product with thiol group measured after 6 hrs by mass spectrometry. In kind it is physicochemical.
Data set [12] can be described thus: Reactivity with dithiothretol assessed as addition product with thiol group measured at 50 degC by mass spectrometry. The class given is physicochemical.
In data set [13] the target is Histone deacetylase 1 (Homo sapiens, UniProt Q13547). As to the kind of experiment: Inhibition of recombinant HDAC1 (unknown origin) measured after 30 mins by fluorescence assay.
Chain of Histone deacetylase 1 (Q13547 whole entry): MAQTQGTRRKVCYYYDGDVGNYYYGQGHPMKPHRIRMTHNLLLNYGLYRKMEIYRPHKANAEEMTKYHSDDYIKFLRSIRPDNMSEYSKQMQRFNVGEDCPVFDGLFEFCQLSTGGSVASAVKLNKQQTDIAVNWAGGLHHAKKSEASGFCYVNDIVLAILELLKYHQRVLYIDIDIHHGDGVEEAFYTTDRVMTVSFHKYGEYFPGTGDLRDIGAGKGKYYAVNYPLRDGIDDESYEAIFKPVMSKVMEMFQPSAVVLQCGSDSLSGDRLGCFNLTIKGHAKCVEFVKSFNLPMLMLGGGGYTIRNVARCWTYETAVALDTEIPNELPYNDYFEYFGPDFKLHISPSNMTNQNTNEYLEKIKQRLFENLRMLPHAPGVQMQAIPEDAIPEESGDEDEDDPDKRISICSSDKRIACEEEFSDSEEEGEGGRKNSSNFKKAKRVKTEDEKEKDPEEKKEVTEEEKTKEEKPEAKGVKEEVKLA
The nature of data set [14]: Reactivity with dithiothretol assessed as addition product with thiol group measured after 6 hrs by mass spectrometry. In kind it is physicochemical.
Data set [15] can be described thus: Reactivity with glutathione assessed as addition product with thiol group measured at 50 degC by mass spectrometry. The class given is physicochemical.
Data set [16] can be described thus: Reactivity with dithiothretol assessed as addition product with thiol group measured within 1 hr by mass spectrometry. The class given is physicochemical.
A short description of data set [17]: Reactivity with glutathione assessed as addition product with thiol group measured within 1 hr by mass spectrometry. In kind it is physicochemical.

SMILES strings stand for the structures. Activity calls are given as the source filed them. The rule behind the calls is not given here. Bounds are passed on as bounds.

From ChEMBL document CHEMBL4359851, “Design, synthesis, and biological evaluation of a new class of histone acetyltransferase p300 inhibitors” (Eur J Med Chem, 2019) come the findings set out here.

T1 sequence (Q09472 whole entry, the tested form may be a part): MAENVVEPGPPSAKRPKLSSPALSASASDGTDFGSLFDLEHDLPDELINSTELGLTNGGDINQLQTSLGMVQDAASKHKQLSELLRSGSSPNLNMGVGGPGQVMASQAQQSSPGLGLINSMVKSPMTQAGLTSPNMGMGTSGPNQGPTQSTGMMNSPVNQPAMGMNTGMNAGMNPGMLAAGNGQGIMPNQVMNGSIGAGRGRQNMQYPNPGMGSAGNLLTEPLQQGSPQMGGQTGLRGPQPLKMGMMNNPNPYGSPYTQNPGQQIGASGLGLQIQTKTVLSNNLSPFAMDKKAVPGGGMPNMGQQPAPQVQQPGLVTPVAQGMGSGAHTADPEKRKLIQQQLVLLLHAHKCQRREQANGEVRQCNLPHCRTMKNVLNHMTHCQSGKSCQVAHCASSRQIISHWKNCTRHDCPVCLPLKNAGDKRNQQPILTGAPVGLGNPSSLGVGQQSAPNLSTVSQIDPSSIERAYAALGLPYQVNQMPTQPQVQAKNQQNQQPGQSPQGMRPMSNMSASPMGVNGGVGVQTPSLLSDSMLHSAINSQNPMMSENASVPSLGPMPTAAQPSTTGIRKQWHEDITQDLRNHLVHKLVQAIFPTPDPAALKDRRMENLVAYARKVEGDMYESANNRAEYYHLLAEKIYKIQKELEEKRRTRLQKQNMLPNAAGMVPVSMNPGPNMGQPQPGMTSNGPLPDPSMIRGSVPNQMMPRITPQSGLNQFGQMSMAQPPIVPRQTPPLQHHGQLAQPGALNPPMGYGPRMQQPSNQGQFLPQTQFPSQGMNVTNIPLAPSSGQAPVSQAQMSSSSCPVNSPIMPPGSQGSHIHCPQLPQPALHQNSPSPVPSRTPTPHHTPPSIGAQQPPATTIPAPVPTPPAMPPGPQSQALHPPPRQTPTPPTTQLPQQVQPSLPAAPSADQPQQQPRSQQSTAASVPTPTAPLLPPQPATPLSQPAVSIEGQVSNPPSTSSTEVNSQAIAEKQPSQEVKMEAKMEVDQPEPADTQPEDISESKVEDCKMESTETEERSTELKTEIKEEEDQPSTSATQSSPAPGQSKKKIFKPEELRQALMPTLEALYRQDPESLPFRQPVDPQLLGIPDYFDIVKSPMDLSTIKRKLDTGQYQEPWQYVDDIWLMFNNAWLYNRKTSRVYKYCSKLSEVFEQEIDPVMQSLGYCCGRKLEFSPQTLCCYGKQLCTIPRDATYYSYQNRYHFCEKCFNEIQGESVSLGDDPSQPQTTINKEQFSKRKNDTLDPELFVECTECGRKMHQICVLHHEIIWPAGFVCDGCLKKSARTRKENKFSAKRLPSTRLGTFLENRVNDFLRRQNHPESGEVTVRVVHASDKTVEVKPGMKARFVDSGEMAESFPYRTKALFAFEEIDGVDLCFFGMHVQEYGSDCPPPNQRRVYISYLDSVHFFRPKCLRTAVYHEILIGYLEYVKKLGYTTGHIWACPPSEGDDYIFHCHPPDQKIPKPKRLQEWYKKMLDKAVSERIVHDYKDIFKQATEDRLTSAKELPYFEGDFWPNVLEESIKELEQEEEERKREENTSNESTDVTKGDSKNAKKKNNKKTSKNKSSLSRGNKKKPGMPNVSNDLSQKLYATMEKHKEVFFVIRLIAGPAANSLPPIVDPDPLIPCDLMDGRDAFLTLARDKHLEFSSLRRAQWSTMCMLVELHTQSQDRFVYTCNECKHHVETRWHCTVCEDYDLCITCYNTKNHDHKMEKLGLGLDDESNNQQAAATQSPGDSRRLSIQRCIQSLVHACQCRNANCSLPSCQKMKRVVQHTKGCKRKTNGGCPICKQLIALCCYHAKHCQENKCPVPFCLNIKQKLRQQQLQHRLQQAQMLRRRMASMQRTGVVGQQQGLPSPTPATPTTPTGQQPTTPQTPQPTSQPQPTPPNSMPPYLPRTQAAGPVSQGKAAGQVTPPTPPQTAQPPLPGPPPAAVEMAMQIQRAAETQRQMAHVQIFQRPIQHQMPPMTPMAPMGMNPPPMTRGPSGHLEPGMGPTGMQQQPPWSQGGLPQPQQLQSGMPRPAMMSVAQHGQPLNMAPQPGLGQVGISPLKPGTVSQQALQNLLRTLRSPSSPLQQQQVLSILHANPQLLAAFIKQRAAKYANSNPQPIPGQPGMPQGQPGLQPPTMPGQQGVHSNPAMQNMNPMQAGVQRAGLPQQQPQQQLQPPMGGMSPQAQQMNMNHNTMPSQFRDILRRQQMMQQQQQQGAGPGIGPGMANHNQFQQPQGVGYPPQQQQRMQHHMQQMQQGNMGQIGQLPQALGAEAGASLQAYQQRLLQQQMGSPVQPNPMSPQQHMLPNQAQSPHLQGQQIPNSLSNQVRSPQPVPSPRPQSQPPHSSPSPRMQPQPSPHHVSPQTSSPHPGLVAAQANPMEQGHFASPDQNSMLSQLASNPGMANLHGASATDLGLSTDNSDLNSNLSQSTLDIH
Chain of Histone deacetylase 2 (Q92769 whole entry): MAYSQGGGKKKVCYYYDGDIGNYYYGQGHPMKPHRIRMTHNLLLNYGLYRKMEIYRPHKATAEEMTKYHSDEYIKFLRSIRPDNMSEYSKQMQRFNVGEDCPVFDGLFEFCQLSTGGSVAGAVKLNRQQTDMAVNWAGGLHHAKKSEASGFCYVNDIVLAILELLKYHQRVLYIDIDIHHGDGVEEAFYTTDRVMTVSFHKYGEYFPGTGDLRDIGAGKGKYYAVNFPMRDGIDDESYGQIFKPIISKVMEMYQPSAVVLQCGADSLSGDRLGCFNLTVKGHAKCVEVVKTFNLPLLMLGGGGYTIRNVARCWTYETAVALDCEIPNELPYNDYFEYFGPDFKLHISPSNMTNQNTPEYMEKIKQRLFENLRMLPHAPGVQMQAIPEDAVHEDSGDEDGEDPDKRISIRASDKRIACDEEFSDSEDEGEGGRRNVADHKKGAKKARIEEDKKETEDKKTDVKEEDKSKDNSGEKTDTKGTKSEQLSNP

Usually IC50 stands for the concentration that inhibits the measured activity by half. Take `CC1=NN(c2ccc(C(=O)O)cc2)C(=O)/C1=C\c1ccc(-c2cc(C)c(C)cc2[N+](=O)[O-])[nH]1`: the IC50 in data set [1] was found to be 1.95 µM.
On the same count and under the same terms, the figure for `CC1=NN(c2ccc(C#N)cc2)C(=O)/C1=C\c1ccc(-c2cc(C)c(C)cc2[N+](=O)[O-])o1` is 1.53 µM; for `Cc1cc(-c2ccc(/C=C3\C(=O)N(c4ccc(C(=O)O)cc4)N=C3C3CC3)o2)c([N+](=O)[O-])cc1C` it is 0.2 µM.
Consider `CCC1=NN(c2ccc(C(=O)O)cc2)C(=O)/C1=C\c1ccc(-c2cc(C)c(C)cc2[N+](=O)[O-])o1`, for which the IC50 in data set [1] is 0.19 µM.
With `CC1=NN(c2ccc(C(=O)O)cc2)C(=O)/C1=C\c1ccc(-c2ccccc2[N+](=O)[O-])o1`, the IC50 in [1] worked out at 0.56 µM.
For `Cc1cc(C(=O)c2ccc3c(cnn3-c3ccc(C(=O)O)cc3)c2)c([N+](=O)[O-])cc1C`, in [1], the IC50 is above 10 µM.
In the case of `CC1=NN(c2ccc(C(=O)O)cc2)C(=O)/C1=C\c1ccc(-c2cc(C)c(C)cc2[N+](=O)[O-])s1`, the inhibition entry in data set [2] is “Active”. Besides, the IC50 worked out at 27.3 µM in data set [3], 0.23 µM in data set [1] and 8.92 µM in [4].
Take `CC1=NN(c2ccc(C(=O)O)cc2)C(=O)/C1=C\c1ccc(-c2cccc3c2C(=O)CC3)o1`: the inhibition entry in data set [2] was “Active”. Besides, the IC50 came out at 26.8 µM in data set [3], 0.58 µM in [1] and 10 µM in data set [4].
As to `Cc1cc(-c2ccc(/C=C(\C#N)C(=O)Nc3ccc(C(=O)O)cc3)o2)c([N+](=O)[O-])cc1C`, in data set [1], the IC50 was found to be 7.13 µM.
On to `Cc1cc(C(=O)c2ccc3c(ccn3-c3ccc(C(=O)O)cc3)c2)c([N+](=O)[O-])cc1C`, for which the IC50 in data set [1] was above 10 µM.
Consider `CC1=NN(c2ccc(-c3nn[nH]n3)cc2)C(=O)/C1=C\c1ccc(-c2cc(C)c(C)cc2[N+](=O)[O-])o1`, for which the half-inhibitory concentration (IC50) in data set [1] was determined as 0.67 µM.
For `CC1=NN(c2ccc(C(=O)O)cc2)C(=O)C1CCC(=O)Nc1cc(C)c(C)cc1[N+](=O)[O-]` (stereo not given), the IC50 in data set [1] is above 10 µM.
For the compound `CC1=NN(c2cc(F)c(O)c(F)c2)C(=O)/C1=C\c1ccc(-c2ccccc2OC(F)(F)F)o1`, in data set [1], the IC50 was above 10 µM.
Turning to `CC1=NN(c2ccc(C(=O)O)cc2)C(=O)C1CC(=O)Nc1cc(C)c(C)cc1[N+](=O)[O-]` (stereo not given), in data set [1], the IC50 amounted to 9.61 µM.
Take `CC1=NN(c2ccc(C(=O)O)cc2)C(=O)/C1=C\c1ccc(-c2ccccc2OC(F)(F)F)o1`: the inhibition entry in data set [2] was “Active”. For the same compound, the half-maximal inhibitory concentration (IC50) in data set [3] stood at 23.9 µM; in data set [1], 1.13 µM; in data set [4], 7.67 µM.
In the case of `CC1=NN(c2cc(F)c(O)c(F)c2)C(=O)/C1=C\c1ccc(-c2cc(C)c(C)cc2[N+](=O)[O-])o1`, the solubility entry in data set [5] and in [6] was “Soluble” throughout. Also, in data set [2], the inhibition entry is “Active”. The 50% inhibitory concentration (IC50) in data set [1] came out at 4.8 µM.
Take `CC1=NN(c2cc(F)c(O)c(F)c2)C(=O)/C1=C\c1ccc(-c2cccc3c2C(=O)CC3)o1`: the solubility result in [5] and in data set [6] was “Soluble” in each case. The inhibition entry in data set [2] was “Active”. In addition, the IC50 in data set [1] came out at 3.73 µM.
Take `Cc1cc(-c2ccc(/C=C3\C(=O)N(c4ccc(C(=O)O)cc4)N=C3C3CC3)s2)c(C(F)(F)F)cc1C`: the half-maximal inhibitory concentration (IC50) is above 100 µM in data set [7]; above 100 µM in [8]; 25.1 µM in data set [9]; 22.5 µM in [3]; above 100 µM in data set [10]; 0.16 µM in [1]. Also, the results for the IC50 in data set [4] and in data set [13] were 5.08 µM and above 100 µM, respectively. Moreover, the inhibition result in data set [2] was “Active”. The Activity result in [11] is reported as “Not Active”; in data set [12], “Active”; in [14], “Not Active”; in [15], “Active”.
As to `CC1=NN(c2ccc(C(=O)O)cc2)C(=O)/C1=C\c1cnc(-c2cc(C)c(C)cc2[N+](=O)[O-])s1`, the half-inhibitory concentration (IC50) in [1] was found to be 0.86 µM.
Take `CC1=NN(c2ccc(C(=O)O)cc2)C(=O)/C1=C(/C)c1ccc(-c2cc(C)c(C)cc2[N+](=O)[O-])o1`: the IC50 in data set [1] came to 2.07 µM.
Same read-out and setting: under `CC1=NN(c2ccc(C(=O)O)cc2)C(=O)/C1=C\c1ccc(-c2ccccc2C(F)F)o1` stands 1.17 µM.
As to `Cc1cc(-c2ccc(/C=C3/NC(=O)N(c4ccc(C(=O)O)cc4)C3=O)o2)c([N+](=O)[O-])cc1C`, in [1], the IC50 is above 10 µM.
As to `CC1=NN(c2cc(F)c(O)c(F)c2)C(=O)/C1=C\c1ccc(-c2ccccc2C(F)F)o1`, the solubility entry in [5] and in data set [6] was “Soluble” throughout. In addition, the inhibition entry in [2] was “Active”. Moreover, the IC50 in data set [1] came out at 6.05 µM.
Take `CC1=NN(c2ccc(P(=O)(O)O)cc2)C(=O)/C1=C\c1ccc(-c2cc(C)c(C)cc2[N+](=O)[O-])o1`: the IC50 in data set [1] is 0.47 µM.
Regarding `Cc1cc(Cc2ccc3c(cnn3-c3ccc(C(=O)O)cc3)c2)c([N+](=O)[O-])cc1C`, in data set [1], the IC50 is above 10 µM.
Still for that read-out and setting: under `Cc1cc(-c2ccc(/C=C3/SC(=O)N(c4ccc(C(=O)O)cc4)C3=O)o2)c([N+](=O)[O-])cc1C` stands above 10 µM; under `CC1=NN(c2ccc(C(=O)O)cc2)C(=O)/C1=C\c1ccc(-c2ccccc2P(C)(C)=O)o1`, above 10 µM.
As to `CC1=NN(c2cc(F)c(O)c(F)c2)C(=O)/C1=C\c1ccc(-c2cc(C)c(C)cc2C(F)(F)F)o1`, the solubility entry in [5] and in data set [6] was “Soluble” in each case. The inhibition result in [2] is “Active”. In addition, the 50% inhibitory concentration (IC50) in [1] was found to be 7.31 µM.
With `CC1=NN(c2ccc(C(=O)O)cc2)C(=O)/C1=C\c1ccc(-c2cc(C)c(C)cc2C(F)(F)F)o1`, the inhibition entry in data set [2] was “Active”. In addition, the IC50 was determined as 10.9 µM in [3], 0.29 µM in [1] and 6.19 µM in data set [4].
For the compound `CC1=NN(c2ccc(C(=O)O)cc2)C(=O)/C1=C\c1ccc(-c2cc(C)c(C)cc2[N+](=O)[O-])o1`, the outcome in data set [16] and in [17] was Active. Moreover, the IC50 in data set [3] is 26.1 µM; in data set [4] it was 7.8 µM.
With `CC1=NN(c2ccc(S(C)(=O)=O)cc2)C(=O)/C1=C\c1ccc(-c2cc(C)c(C)cc2[N+](=O)[O-])o1`, the 50% inhibitory concentration (IC50) in [1] came out at 4.06 µM.
